Data as given in the supplement of paper PMC4862054.
Where “and” joins values, the source holds several entries; their conditions need not be identical. Identical values can stand only once.

Assays:
Assay in all cases: normalised viability (% of control), CellTiter-Blue; higher = more viable cells (about 100 = DMSO control)
Conditions in all cases: incubation time: 72 h
HDQ-P1 [1] = test system: HDQ-P1
Method: (§1)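 DSRT, CellTiter-Blue viability, 72 h incubation. Signal is normalised to DMSO and benzethonium chloride controls. Value is the normalised response at dose 6.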

CAL-148 [2] = test system: CAL-148
Method: as §1

MDA-MB-453 [3] = test system: MDA-MB-453
Method: as §1

CAL-85-1 [4] = test system: CAL-85-1
Method: as §1

DU-4475 [5] = test system: DU-4475
Method: as §1

CAL-51 [6] = test system: CAL-51
Method: as §1

HDQ-P1 [7] = test system: HDQ-P1; remark: listed apart in the source
Method: (§2)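 DSRT, CellTiter-Blue viability, 72 h incubation. Signal is normalised to DMSO and benzethonium chloride controls. Value is the normalised response at dose 8.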

CAL-148 [8] = test system: CAL-148; remark: listed apart in the source
Method: as §2

MDA-MB-453 [9] = test system: MDA-MB-453; remark: listed apart in the source
Method: as §2

CAL-85-1 [10] = test system: CAL-85-1; remark: listed apart in the source
Method: as §2

DU-4475 [11] = test system: DU-4475; remark: listed apart in the source
Method: as §2

CAL-51 [12] = test system: CAL-51; remark: listed apart in the source
Method: as §2

HDQ-P1 [13] = test system: HDQ-P1; remark: listed apart in the source
Method: (§3)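 DSRT, CellTiter-Blue viability, 72 h incubation. Signal is normalised to DMSO and benzethonium chloride controls. Value is the normalised response at dose 7.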

CAL-148 [14] = test system: CAL-148; remark: listed apart in the source
Method: as §3

MDA-MB-453 [15] = test system: MDA-MB-453; remark: listed apart in the source
Method: as §3

CAL-85-1 [16] = test system: CAL-85-1; remark: listed apart in the source
Method: as §3

DU-4475 [17] = test system: DU-4475; remark: listed apart in the source
Method: as §3

CAL-51 [18] = test system: CAL-51; remark: listed apart in the source
Method: as §3

SMILES	normalised viability (HDQ-P1 [7])	normalised viability (CAL-148 [8])	normalised viability (MDA-MB-453 [9])	normalised viability (CAL-85-1 [10])	normalised viability (DU-4475 [11])	normalised viability (CAL-51 [12])	further results
COc1cc2c(cc1O)CC[C@@H]1[C@@H]2CC[C@]2(C)[C@@H](O)CC[C@@H]12 [2-methoxyestradiol] (300 nM)							normalised viability (HDQ-P1 [1]): 72.2%; normalised viability (CAL-148 [2]): 97%; normalised viability (MDA-MB-453 [3]): 81.3%; normalised viability (CAL-85-1 [4]): 99%; normalised viability (DU-4475 [5]): 90.8%; normalised viability (CAL-51 [6]): 110%
Nc1ncn([C@@H]2O[C@H](CO)[C@@H](O)[C@H]2O)c(=O)n1 [Azacitidine] (3000 nM)	105%	89.5%	101%	93.8%	99.7%	109%	
Cn1cnc2c(F)c(Nc3ccc(Br)cc3Cl)c(C(=O)NOCCO)cc21 [Selumetinib] (3000 nM)	76.5%	91.9%	108%	59.3%	0.16%	86.9%	
CC(=O)O[C@@]12CO[C@@H]1C[C@H](O)[C@@]1(C)C(=O)[C@H](O)C3=C(C)[C@@H](OC(=O)[C@H](O)[C@@H](NC(=O)OC(C)(C)C)c4ccccc4)C[C@@](O)([C@@H](OC(=O)c4ccccc4)[C@H]21)C3(C)C [Docetaxel] (300 nM)	37.9% and 31.2%	22.2% and 19.1%	24.4% and 23.9%	30.9% and 28.7%	12.4% and 8.14%	17.9% and 12%	
O=P(O)(O)C(O)(Cn1ccnc1)P(=O)(O)O [Zoledronic acid] (3000 nM)	89.4%	90.1%	111%	96.8%	121%	113%	
Nc1nc2[nH]cnc2c(=S)[nH]1 [Thioguanine] (3000 nM)	86.4%	78.4%	110%	75.7%	115%	103%	
C[C@]12CC[C@@H]3c4ccc(OC(=O)N(CCCl)CCCl)cc4CC[C@H]3[C@@H]1CC[C@@H]2O [Estramustine] (99 nM)							normalised viability (HDQ-P1 [13]): 97.1%; normalised viability (CAL-148 [14]): 119%; normalised viability (MDA-MB-453 [15]): 99.7%; normalised viability (CAL-85-1 [16]): 102%; normalised viability (DU-4475 [17]): 106%; normalised viability (CAL-51 [18]): 85.8%
CC(C)(C)c1cnc(CSc2cnc(NC(=O)C3CCNCC3)s2)o1 [SNS-032] (3000 nM)	14.4%	18.8%	15.8%	3.68%	4.8%	8.52%	
C[C@]12CC[C@@H]3c4ccc(OC(=O)N(CCCl)CCCl)cc4CC[C@H]3[C@@H]1CC[C@@H]2O [Estramustine] (297 nM)	93.6%	97.5%	101%	86.5%	118%	92.5%	
CC(C)(C)c1cnc(CSc2cnc(NC(=O)C3CCNCC3)s2)o1 [SNS-032] (300 nM)							normalised viability (HDQ-P1 [1]): 10.2%; normalised viability (CAL-148 [2]): 7.44%; normalised viability (MDA-MB-453 [3]): 18.9%; normalised viability (CAL-85-1 [4]): 9.41%; normalised viability (DU-4475 [5]): 27.9%; normalised viability (CAL-51 [6]): 74%
CC(=O)O[C@@]12CO[C@@H]1C[C@H](O)[C@@]1(C)C(=O)[C@H](O)C3=C(C)[C@@H](OC(=O)[C@H](O)[C@@H](NC(=O)OC(C)(C)C)c4ccccc4)C[C@@](O)([C@@H](OC(=O)c4ccccc4)[C@H]21)C3(C)C [Docetaxel] (30 nM)							normalised viability (HDQ-P1 [1]): 23.5% and 31.8%; normalised viability (CAL-148 [2]): 18.9% and 14.9%; normalised viability (MDA-MB-453 [3]): 27.2% and 26.1%; normalised viability (CAL-85-1 [4]): 30.6% and 27.1%; normalised viability (DU-4475 [5]): 19.6% and 16.1%; normalised viability (CAL-51 [6]): 25.8% and 20.6%
Nc1ncn([C@@H]2O[C@H](CO)[C@@H](O)[C@H]2O)c(=O)n1 [Azacitidine] (300 nM)							normalised viability (HDQ-P1 [1]): 84.5%; normalised viability (CAL-148 [2]): 95.3%; normalised viability (MDA-MB-453 [3]): 91.9%; normalised viability (CAL-85-1 [4]): 93.1%; normalised viability (DU-4475 [5]): 90%; normalised viability (CAL-51 [6]): 104%
C[C@]1(O)C[C@@H](c2nc(-c3ccc4ccc(-c5ccccc5)nc4c3)c3c(N)nccn32)C1 [OSI-906] (3000 nM)	50.5%	95.6%	73.9%	85.5%	106%	88.3%	
C[C@]1(O)C[C@@H](c2nc(-c3ccc4ccc(-c5ccccc5)nc4c3)c3c(N)nccn32)C1 [OSI-906] (1000 nM)							normalised viability (HDQ-P1 [13]): 55.5%; normalised viability (CAL-148 [14]): 95%; normalised viability (MDA-MB-453 [15]): 93.7%; normalised viability (CAL-85-1 [16]): 91.9%; normalised viability (DU-4475 [17]): 77.3%; normalised viability (CAL-51 [18]): 86.9%
CC(=O)c1c(C)c2cnc(Nc3ccc(N4CCNCC4)cn3)nc2n(C2CCCC2)c1=O (3000 nM)	120%	103%	63.6%	102%	102%	69.6%	
O=P(O)(O)C(O)(Cn1ccnc1)P(=O)(O)O [Zoledronic acid] (1000 nM)							normalised viability (HDQ-P1 [13]): 95.7%; normalised viability (CAL-148 [14]): 92.5%; normalised viability (MDA-MB-453 [15]): 86.8%; normalised viability (CAL-85-1 [16]): 88.4%; normalised viability (DU-4475 [17]): 120%; normalised viability (CAL-51 [18]): 101%
Cc1sc2c(c1C)C(c1ccc(Cl)cc1)=N[C@@H](CC(=O)OC(C)(C)C)c1nnc(C)n1-2 [(+)JQ1] (3000 nM)	94.8%	36.9%	23.3%	40.5%	0.9%	74.3%	
CC[C@@H]1C(=O)OC[C@@H]1Cc1cncn1C [Pilocarpine] (12000 nM)	127%	105%	117%	92.5%	88%	107%	
O=NN(CCCl)C(=O)NCCCl [Carmustine] (3000 nM)	108%	102%	118%	95.7%	90.5%	102%	
CC1=C2C[C@H]3[C@@H](CC=C4C[C@@H](O)CC[C@@]43C)[C@@H]2CC[C@]12O[C@@H]1C[C@H](C)CN[C@H]1[C@H]2C [Cyclopamine] (3000 nM)	105%	111%	105%	99.7%	122%	109%	
